{"source": "patent EP1263420B1", "about": "(priority 2000, dated 2001)", "key": {"[1]": {"system": "liver RARs", "assay": "Western blot of rat liver samples after inhaled 13-cis RA", "format": "in vivo", "experimental": "Rats (n=97) (Sprague-Dawley from Charles River) were divided into five experimental groups and were given varying amounts of 13-cis RA by inhalation. The experimental groups were as follows (Table 4) :1.Vehicle (10/9 mix of PEG 300 and Ethanol with 0.5% of ascorbic acid and 0.5% phosphatidyl choline) control, day 1: rats (19) inhaled vehicle for 2 hr for one day; 2. High dose 13-cis RA, day 1: rats (22) inhaled a solution containing 13-cis-RA at a concentration of 104µg/liter (projected daily inhaled dose 10mg/kg body weight) for 2 hr for one day; 3. High dose 13-cis RA, day 17: rats (22) inhaled the same solution as in 2 for 2 hr each day for 17 days; 4. Vehicle control, day 28: rats (16) inhaled vehicle as for group 1 for a period of 28 days; 5. Middle dose 13-cis RA, day 28: rats (18) inhaled a solution containing 13-cis-RA at a concentration of 31µg/liter (projected daily inhaled dose 3mg/kg body weight) for 2 hr for each of 28 days.\nMale rats (n=23) (Sprague-Dawley from Charles River) were divided into six experimental groups and were given varying amounts of 13-cis RA through an inhalant apparatus once daily for different times each day for 14 days. The experimental groups were as follows (Table 1) :1.Vehicle control : rats (3) inhaled vehicle for 240 minutes; 2. Low dose 13-cis RA: rats (4) inhaled a solution containing 13-cis RA at a concentration of 62.2µg/liter (inhaled dose 115.0µg/kg body weight) in 5 minutes; 3. Low-Middle dose 13-cis RA : rats (4) inhaled a solution containing 13-cis RA at a concentration of 62.2µg/liter (inhaled dose 334.4µg/kg body weight) in 15 minutes; 4.Middle dose 13-cis RA: rats (4) inhaled a solution containing 13-cis RA at a concentration of 62.2µg/liter (inhaled dose 1012.3µg/kg body weight) in 45 minutes; 5. Middle-High dose 13-cis RA : rats (4) inhaled a solution containing 13-cis RA at a concentration of 62.2µg/liter (inhaled dose 2843.4µg/kg body weight) in 120 minutes; 6. High dose 13-cis RA : rats (4) inhaled a solution containing 13-cis RA at a concentration of 62.2µg/liter (inhaled dose 5935.6µg/kg body weight) in 240 minutes. […]"}, "[2]": {"system": "Lung Tumorigenesis", "assay": "Lung tumorigenesis inhibition by inhaled isotretinoin in carcinogen-treated A/J mice", "format": "in vivo", "conditions": "for reductions of tumor multiplicity (non-significant): low dose; for reductions in multiplicity of tumor nodules: mid isotretinoin dose", "description": "The A/J mouse is a well-established animal model for preclinical chemoprevention studies. This strain has a hereditary predisposition for lung cancer, the so-called pulmonary adenoma susceptibility (Pas) genes. A strong candidate for one of these genes, Pas-1, is the K-ras protooncogene. Carcinogenesis in this model with NNK as the inciting agent has been studied so that the times required to develop hyperplastic areas, adenomas, and carcinomas are well known. In addition, the timing of molecular changes associated with carcinogenesis has been studied and are similar to those in humans. In both species, K-ras mutations are common early events.\nWithin 24 h of the last inhalation exposure, animals were euthanized by intraperitoneal injection of pentobarbital and their lungs were removed and fixed in Bouin's solution or flash frozen for RAR determination. The lungs were evaluated in a blinded fashion so that neither carcinogen nor isotretinoin dose levels were known to the evaluator, who visually counted hyperplastic areas and adenomas on the lung pleural surface as previously described The significance of the differences between the mean tumor incidence of the treatment and the control groups was determined using the Mann-Whitney Rank Sum test (Statmost TM, DataMost Corp., Sandy, Utah)."}, "[3]": {"system": "urethane-induced lung cancer", "conditions": "orally administered, over 300 mg/kg weekly; cited from earlier work"}}, "note": "Entries after “also recorded” stand apart in the source; their conditions may differ.", "data": [{"smiles": "CC1=C(/C=C/C(C)=C/C=C/C(C)=C\\C(=O)O)C(C)(C)CCC1", "note": "[13-cis RA, 13-cis-Retinoic Acid]", "values": [{"measurement": "effect on liver RARs", "setting": "[1]; inhaled 13-cis RA, rats, summary statement", "result": "failed to have any significant effect on liver RARs; also recorded: has no effect on liver RARs"}, {"measurement": "increase in liver RARs", "setting": "[1]; rat liver, experiment A (same rats as Fig 2A), not shown", "result": "failed to show any increase in RARs"}, {"measurement": "response of liver RARs", "setting": "[1]; rat liver, experiment B, 5 to 240 minutes daily, 14 days, not shown", "result": "not responsive"}, {"measurement": "reductions of tumor multiplicity (non-significant)", "setting": "[2]; BaP treated mice, p<0.13", "result": 30, "unit": "%"}, {"measurement": "reductions of tumor multiplicity (non-significant)", "setting": "[2]; NNK treated mice, p<0.30", "result": 16, "unit": "%"}, {"measurement": "effect on numbers of tumors", "setting": "[2]; low isotretinoin dose", "result": "not affected by treatment at the 95% confidence level; also recorded: not significantly effective"}, {"measurement": "reductions in multiplicity of tumor nodules", "setting": "[2]; BaP-treated mice", "result": 67, "unit": "%"}, {"measurement": "reductions in multiplicity of tumor nodules", "setting": "[2]; NNK-treated mice", "result": 88, "unit": "%"}, {"measurement": "prevention of urethane-induced lung cancer", "setting": "[3]", "result": "failed to prevent urethane-induced lung cancer"}]}]}
